The source of these data is EPA's ToxRefDB 2.

The test system of data set [1] is rat. The conditions noted are these: Combined chronic toxicity/carcinogenicity, sprague dawley, Oral, Feed, dose end: 104 week, group: systemic.
The subject of data set [2] is mouse. The conditions noted are these: Carcinogenicity, cd1, Oral, [Not Specified], dose end: 24 month, group: systemic.
The test system of data set [3] is rat. The conditions noted are these: Combined chronic toxicity/carcinogenicity, fischer, Oral, Feed, dose end: 24 month, group: systemic.
The test system of data set [4] is rat. The conditions noted are these: Prenatal developmental toxicity study, sprague dawley, Oral, Gavage/Intubation, dose end: 15 GD.
Data set [5] deals with rat. The following applies: Subchronic oral toxicity in rodents, fischer, Water, dose end: 13 week, group: systemic.
Data set [6] concerns dog. The conditions noted are these: Chronic toxicity; beagle; Oral; Feed; dose end: 12 month; group: systemic; systemic / pathology microscopic / kidney / adenoma.
Data set [7] relates to rat. The conditions noted are these: Developmental neurotoxicity study, long evans, Oral, Gavage/Intubation, dose end: 110 PND, group: cannot be grouped.
In data set [8] the test system is rat. The following applies: Peri- and post-natal toxicity study (Segment III); sprague dawley; Oral; Gavage/Intubation; dose end: 40 PND; group: parental; systemic / clinical chemistry / estradiol / estradiol + systemic / organ weight / adrenal gland / absolute.
For data set [9], the system named is rat. The conditions noted are these: Carcinogenicity; fischer; Oral; Feed; dose end: 103 week; group: systemic; systemic / in life observation / body weight / body weight.
Data set [10] has as its system mouse. The conditions noted are these: Carcinogenicity, b6c3f1, Oral, Feed, dose end: 103 week, group: systemic.
Data set [11] concerns mouse. The following applies: Sub-acute repeat dose toxicity, b6c3f1, Oral, Feed, dose end: 14 day, group: systemic.
Data set [12] concerns rat. The following applies: Subchronic oral toxicity in rodents, fischer, Feed, dose end: 13 week, group: systemic, systemic / in life observation / body weight / body weight.
The test system of data set [13] is rat. The conditions noted are these: Sub-acute repeat dose toxicity, fischer, Oral, Feed, dose end: 14 day, group: systemic.
Data set [14] concerns rat. The following applies: Sub-acute repeat dose toxicity, sprague dawley, Oral, Gavage/Intubation, dose end: 4 week, group: systemic.
In data set [15] the test system is rat. The following applies: Fertility (Segment I), sprague dawley, Oral, Gavage/Intubation, dose end: 7 GD.
Data set [16] concerns rat. The following applies: Prenatal developmental toxicity study, sprague dawley, Oral, Gavage/Intubation, dose end: 17 GD.
The next data set has as its system rabbit. The conditions noted are these: Prenatal developmental toxicity study, new zealand white, Oral, Gavage/Intubation, dose end: 19 GD.
Data set [17] relates to dog. The conditions noted are these: Sub-acute repeat dose toxicity; beagle; Oral; Gavage/Intubation; dose end: 4 week; group: systemic; systemic / in life observation / clinical signs / abnormal feces.
Data set [18] concerns rat. The following applies: Prenatal developmental toxicity study, sprague dawley, Oral, Gavage/Intubation, dose end: 17 GD. This is another data set of the same source.
The mark [19] stands for this setting: systemic / pathology microscopic / kidney / adenoma + systemic / organ weight / kidney / absolute + systemic / organ weight / kidney / ….
[20] abbreviates: systemic / pathology gross / lung / nodule(s).
Setting [21] is: systemic / pathology microscopic / liver / hemangiosarcoma + systemic / pathology microscopic / lung / adenoma + systemic / pathology ….
[22] abbreviates: systemic / pathology microscopic / adrenal gland / pheochromocytoma benign + systemic / pathology microscopic / adrenal gland / ….
Where [23] appears, read: group: developmental, developmental / developmental malformation / bone / absent.
The mark [24] stands for this setting: group: maternal, systemic / in life observation / clinical signs / defecation (diarrhea) + systemic / in life observation / clinical signs / soft stools.
The mark [25] stands for this setting: systemic / urinalysis / protein / protein + systemic / urinalysis / bilirubin / total bilirubin.
Where [26] appears, read: systemic / urinalysis / protein / protein + systemic / urinalysis / bilirubin / total bilirubin + systemic / urinalysis / specific gravity/….
The mark [27] stands for this setting: systemic / in life observation / body weight / body weight gain + systemic / in life observation / clinical signs / vaginal discharge + ….
Setting [28] is: systemic / pathology microscopic / liver / hepatocellular adenoma + systemic / pathology microscopic / liver / hepatocellular carcinoma.
Setting [29] is: systemic / in life observation / body weight / body weight + systemic / in life observation / body weight / body weight gain + systemic / in….
The mark [30] stands for this setting: systemic / in life observation / body weight / body weight gain + systemic / in life observation / mortality / mortality + systemic / in ….
Setting [31] is: systemic / clinical chemistry / cholesterol / cholesterol + systemic / pathology microscopic / kidney / karyomegaly + systemic / pathology ….
The mark [32] stands for this setting: systemic / pathology microscopic / kidney / karyomegaly + systemic / pathology microscopic / kidney / necrosis + systemic / pathology ….
Where [33] appears, read: group: maternal, reproductive / reproductive performance / estrous cycle / corpora lutea + reproductive / reproductive performance / implantations / ….
Setting [34] is: group: parental, systemic / in life observation / body weight / body weight gain + systemic / in life observation / food consumption / food consumption.
The mark [35] stands for this setting: group: developmental, developmental / developmental malformation / trunk / thoracogastroschisis + systemic / in life observation / body weight / fetal weight.
The mark [36] stands for this setting: group: developmental, systemic / in life observation / body weight / fetal weight.
[37] abbreviates: group: maternal, reproductive / reproductive performance / postimplantation loss / postimplantation loss + systemic / in life observation / body weight / ….
The mark [38] stands for this setting: group: maternal, systemic / in life observation / body weight / body weight gain + systemic / in life observation / clinical signs / defecation + systemic / ….
The mark [39] stands for this setting: group: developmental, developmental / developmental malformation / bone / branched + developmental / developmental malformation / bone / full supernumerary + ….
Setting [40] is: group: developmental, developmental / developmental malformation / bone / short + developmental / developmental malformation / bone / unossified + developmental….
[41] abbreviates: group: maternal, systemic / in life observation / body weight / body weight + systemic / in life observation / body weight / body weight gain + systemic / in….

A word on the LOAEL: it is the lowest tested level that showed an adverse finding. What is called NOAEL is the highest dose or exposure tested at which no adverse effect was seen.

On to `O=P(OC(CCl)CCl)(OC(CCl)CCl)OC(CCl)CCl` [TDCPP], for which the NEL with rat [1] (systemic / pathology microscopic / adrenal gland / adenoma + systemic / pathology microscopic / kidney / adenoma + systemic / pathology …) was determined as 5 mg/kg/day. For the same compound, in the data set with rat [1] (setting [19]), the LEL was 20 mg/kg/day, the LOAEL is above 80 mg/kg/day and the no-observed-adverse-effect level (NOAEL) is at least 80 mg/kg/day.
For the compound `CN(C)NC(=O)CCC(=O)O` [Daminozide], the LEL was determined as 42 mg/kg/day in the data set with mouse [2] (setting [20]); 250 mg/kg/day in the data set on rat [3] (systemic / pathology microscopic / adrenal gland / pheochromocytoma malignant); 1800 mg/kg/day in the data set with rat [4] (setting [23]); 1800 mg/kg/day in the data set with rat [4] (setting [24]); 2.01 mg/kg/day in the data set with rat [5] (setting [25]); 188 mg/kg/day in the data set with dog [6]. For the same compound, the NEL with mouse [2] (setting [20]) is below 42 mg/kg/day; in the data set on rat [3] (setting [22]), 25 mg/kg/day; with rat [4] (setting [23]) it was 390 mg/kg/day; with rat [4] (setting [24]), 390 mg/kg/day; with rat [5] (setting [26]), 0.8 mg/kg/day; with dog [6] it was 75 mg/kg/day. For the same compound, the LOAEL was above 1410 mg/kg/day in the data set on mouse [2] (setting [21]); above 500 mg/kg/day in the data set on rat [3] (setting [22]); 1800 mg/kg/day with rat [4] (setting [23]); 1800 mg/kg/day in the data set with rat [4] (setting [24]); 2.01 mg/kg/day in the data set with rat [5] (setting [25]); above 188 mg/kg/day in the data set with dog [6]. In addition, the NOAEL in the data set on mouse [2] (setting [21]) is at least 1410 mg/kg/day; with rat [3] (setting [22]), at least 500 mg/kg/day; in the data set with rat [4] (setting [23]), 390 mg/kg/day; with rat [4] (setting [24]), 390 mg/kg/day; in the data set with rat [5] (setting [26]) it was 0.8 mg/kg/day; in the data set on dog [6], at least 188 mg/kg/day.
As for `CCC[CH2][Sn]([CH2]CCC)([CH2]CCC)[O][Sn]([CH2]CCC)([CH2]CCC)[CH2]CCC` [Bis(tributyltin)oxide], in the data set with rat [7] (developmental / developmental malformation / mouth / jaw / cleft palate + developmental / offspring survival late / [other] / [other] + …), the NEL was 2.5 mg/kg/day. Also, in the data set on rat [7] (setting [27]), the LOAEL was above 16 mg/kg/day and the NOAEL was at least 16 mg/kg/day. This compound also came in with an LEL in the data set with rat [7] (systemic / in life observation / body weight / offspring (pup) weight) of 5 mg/kg/day.
For the compound `CCOC(=O)c1ccc(O)cc1` [Ethylparaben], in the data set on rat [8], the LEL was found to be 1000 mg/kg/day, the lowest observed adverse effect level (LOAEL) was above 1000 mg/kg/day, the NEL worked out at 250 mg/kg/day and the NOAEL is at least 1000 mg/kg/day.
On to `C=CCc1ccc(O)c(OC)c1` [Eugenol], for which the LEL worked out at 625 mg/kg/day in the data set with rat [9]; 450 mg/kg/day in the data set with mouse [10] (setting [28]); 1880 mg/kg/day in the data set on mouse [11] (systemic / in life observation / body weight / body weight + systemic / in life observation / body weight / body weight gain); 300 mg/kg/day in the data set with rat [12]; 1250 mg/kg/day in the data set on rat [13] (systemic / in life observation / body weight / body weight gain). Further, the lowest observed adverse effect level (LOAEL) in the data set on rat [9] was 625 mg/kg/day; in the data set on mouse [10] (systemic / in life observation / body weight / body weight), 900 mg/kg/day; with mouse [11] (setting [29]), above 15000 mg/kg/day; with rat [12], 625 mg/kg/day; in the data set on rat [13] (setting [30]) it was above 5000 mg/kg/day. Moreover, the NEL was 300 mg/kg/day in the data set with rat [9]; below 450 mg/kg/day with mouse [10] (setting [28]); 900 mg/kg/day in the data set with mouse [11] (setting [29]); 150 mg/kg/day in the data set on rat [12]; 625 mg/kg/day in the data set on rat [13] (systemic / in life observation / body weight / body weight gain + systemic / in life observation / mortality / mortality). The NOAEL in the data set on rat [9] is 300 mg/kg/day; in the data set with mouse [10] (systemic / in life observation / body weight / body weight + systemic / pathology microscopic / liver / adenoma/carcinoma combined), 450 mg/kg/day; with mouse [11] (setting [29]), at least 15000 mg/kg/day; with rat [12] it was 300 mg/kg/day; with rat [13] (setting [30]) it was at least 5000 mg/kg/day.
With `Cc1nc(-c2ccccn2)ncc1C(=O)Nn1cc(C)c2cc(F)ccc21`, the lowest-observed-adverse-effect level (LOAEL) in the data set with rat [14] (setting [31]) was 110 mg/kg/day; in the data set on rat [15] (setting [33]), above 110 mg/kg/day; in the data set on rat [15] (setting [34]) it was above 110 mg/kg/day; in the data set on rat [16] (setting [35]) it was above 110 mg/kg/day; in the data set on rat [16] (setting [37]), above 110 mg/kg/day; with rabbit (setting [36]), above 2000 mg/kg/day. The lowest-observed-adverse-effect level (LOAEL) was above 2000 mg/kg/day in the data set with rabbit (setting [38]), 100 mg/kg/day with dog [17], above 110 mg/kg/day in the data set on rat [18] (setting [39]) and 110 mg/kg/day in the data set on rat [18] (setting [41]). Besides, the NOAEL with rat [14] (setting [31]) is 30 mg/kg/day; with rat [15] (setting [33]), at least 110 mg/kg/day; in the data set with rat [15] (setting [34]), at least 110 mg/kg/day; with rat [16] (setting [35]), at least 110 mg/kg/day; in the data set on rat [16] (setting [37]) it was at least 110 mg/kg/day; in the data set with rabbit (setting [36]), at least 2000 mg/kg/day. For the same compound, the NOAEL in the data set with rabbit (setting [38]) was at least 2000 mg/kg/day; in the data set on dog [17], 30 mg/kg/day; with rat [18] (setting [39]), at least 110 mg/kg/day; in the data set on rat [18] (setting [41]), 30 mg/kg/day. For the same compound, the LEL worked out at 10 mg/kg/day with rat [14] (setting [32]); 110 mg/kg/day with rat [15] (setting [33]); 30 mg/kg/day in the data set with rat [15] (group: parental, systemic / in life observation / body weight / body weight gain); 30 mg/kg/day in the data set with rat [16] (setting [36]); 110 mg/kg/day in the data set with rat [16] (setting [37]); 500 mg/kg/day in the data set with rabbit (setting [36]). The LEL in the data set with rabbit (setting [38]) was determined as 500 mg/kg/day; in the data set with dog [17] it was 100 mg/kg/day; in the data set with rat [18] (setting [40]), 10 mg/kg/day; in the data set with rat [18] (group: maternal, systemic / in life observation / food consumption / food consumption), 30 mg/kg/day. Besides, the NEL was below 10 mg/kg/day in the data set on rat [14] (setting [32]); 30 mg/kg/day in the data set with rat [15] (setting [33]); 10 mg/kg/day in the data set with rat [15] (setting [34]); 10 mg/kg/day with rat [16] (setting [35]); 30 mg/kg/day with rat [16] (setting [37]); below 500 mg/kg/day in the data set with rabbit (setting [36]). Also, the NEL is below 500 mg/kg/day with rabbit (setting [38]), 30 mg/kg/day with dog [17], below 10 mg/kg/day in the data set on rat [18] (setting [40]) and 10 mg/kg/day with rat [18] (setting [41]).
